The assay deals with Crude diglycosidase. The assay can be described thus: Examination of substrate concentration in the conversion into isoflavone aglycons by diglycosidase using soybean materials.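 On Decomposition efficiency: ratio of each glycoside/aglycon within its isoflavone family: percent of the isoflavone family total.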 The assay is classed as biochemical, Penicillium multicolor IAM7153. The procedure: Into 20 mM acetate buffer of pH 4.0 was suspended 0.1 g, 0.25 g, 0.5 g, 1.0 g, or 1.5 g of each of various soybean materials (roasted soy flour (manufactured by Fuji Shokuryo K.K.), soymilk (manufactured by Gitoh Shokuhin K.K.), defatted soybean (manufactured by Fuji Seiyu K.K.), concentrated soybean protein (manufactured by Fuji Seiyu K.K.)). The pH of the suspension was measured and the liquid volume was adjusted to 4.5 mL while the pH was adjusted to 4.0 with 1N hydrochloric acid. An enzyme solution wherein diglycosidase activity of crude diglycosidase was adjusted to 1.88 AU/mL was added thereto in an amount of 0.5 mL, whereby the final liquid volume was 5.0 mL. Namely, the ratio of the soybean material in the reaction mixture was 2%, 5%, 10%, 20%, or 30% (w/v). The whole was reacted at 55° C. under shaking. To 5 mL of the reaction mixture was added 7 mL of ethanol after 0, 1, 3, and 6 hours of the reaction. After ultrasonication, the mixture was thoroughly mixed. It was subjected to centrifugal separation at 2,000 rpm and room temperature for 5 minutes. Then, […] of the supernatant was placed in a 1.5 mL microtube and was subjected to centrifugal separation at 15,000 rpm and 4° C. for 10 minutes. The supernatant was filtered through a filter and each sample was suitably diluted by a factor of 1 to 6 depending on the substrate concentration. Fifty μL of the diluted solution was analyzed by HLPC (Tables 27 to 38).

Regarding `COc1cc2c(=O)c(-c3ccc(O)cc3)coc2cc1O[C@@H]1O[C@H](COC(C)=O)[C@@H](O)[C@H](O)[C@H]1O` [acetyl-glycitin], the “Decomposition efficiency: ratio of each glycoside/aglycon within its isoflavone family” value is “not detected” (soymilk, substrate concentration 2%, heat treatment of enzyme no, reaction time 0 h); “not detected” (soymilk, substrate concentration 2%, heat treatment of enzyme no, reaction time 1 h); “not detected” (soymilk, substrate concentration 2%, heat treatment of enzyme no, reaction time 3 h); “not detected” (soymilk, substrate concentration 2%, heat treatment of enzyme no, reaction time 6 h); “not detected” (soymilk, substrate concentration 2%, heat treatment of enzyme yes, reaction time 6 h); “not detected” (soymilk, substrate concentration 5%, heat treatment of enzyme no, reaction time 0 h). The “Decomposition efficiency: ratio of each glycoside/aglycon within its isoflavone family” value is “not detected” (soymilk, substrate concentration 5%, heat treatment of enzyme no, reaction time 1 h); “not detected” (soymilk, substrate concentration 5%, heat treatment of enzyme no, reaction time 3 h); “not detected” (soymilk, substrate concentration 5%, heat treatment of enzyme no, reaction time 6 h); “not detected” (soymilk, substrate concentration 5%, heat treatment of enzyme yes, reaction time 6 h); “not detected” (soymilk, substrate concentration 10%, heat treatment of enzyme no, reaction time 0 h); “not detected” (soymilk, substrate concentration 10%, heat treatment of enzyme no, reaction time 1 h). Further, the “Decomposition efficiency: ratio of each glycoside/aglycon within its isoflavone family” value (soymilk, substrate concentration 10%, heat treatment of enzyme no, reaction time 3 h) is reported as “not detected”; the “Decomposition efficiency: ratio of each glycoside/aglycon within its isoflavone family” value (soymilk, substrate concentration 10%, heat treatment of enzyme no, reaction time 6 h) was “not detected”; the “Decomposition efficiency: ratio of each glycoside/aglycon within its isoflavone family” value (soymilk, substrate concentration 10%, heat treatment of enzyme yes, reaction time 6 h) was “not detected”; the “Decomposition efficiency: ratio of each glycoside/aglycon within its isoflavone family” value (soymilk, substrate concentration 20%, heat treatment of enzyme no, reaction time 0 h) is given as “not detected”; the “Decomposition efficiency: ratio of each glycoside/aglycon within its isoflavone family” value (soymilk, substrate concentration 20%, heat treatment of enzyme no, reaction time 1 h) is reported as “not detected”; the “Decomposition efficiency: ratio of each glycoside/aglycon within its isoflavone family” value (soymilk, substrate concentration 20%, heat treatment of enzyme no, reaction time 3 h) was “not detected”. The “Decomposition efficiency: ratio of each glycoside/aglycon within its isoflavone family” value reads like this: (soymilk, substrate concentration 20%, heat treatment of enzyme no, reaction time 6 h) “not detected”; (soymilk, substrate concentration 20%, heat treatment of enzyme yes, reaction time 6 h) “not detected”; (soymilk, substrate concentration 30%, heat treatment of enzyme no, reaction time 0 h) “not detected”; (soymilk, substrate concentration 30%, heat treatment of enzyme no, reaction time 1 h) “not detected”; (soymilk, substrate concentration 30%, heat treatment of enzyme no, reaction time 3 h) “not detected”; (soymilk, substrate concentration 30%, heat treatment of enzyme no, reaction time 6 h) “not detected”. Further, for the setting “soymilk, substrate concentration 30%, heat treatment of enzyme yes, reaction time 6 h”, the “Decomposition efficiency: ratio of each glycoside/aglycon within its isoflavone family” value was “not detected”.

As to `O=c1c(-c2ccc(O)cc2)coc2cc(O[C@@H]3O[C@H](CO)[C@@H](O)[C@H](O)[C@H]3O)ccc12` [diadzin], the “Decomposition efficiency: ratio of each glycoside/aglycon within its isoflavone family” value runs as follows: (concentrated soybean protein, substrate concentration 2%, heat treatment of enzyme no, reaction time 0 h) 52.8%; (concentrated soybean protein, substrate concentration 2%, heat treatment of enzyme no, reaction time 1 h) “not detected”; (concentrated soybean protein, substrate concentration 2%, heat treatment of enzyme no, reaction time 3 h) “not detected”; (concentrated soybean protein, substrate concentration 2%, heat treatment of enzyme no, reaction time 6 h) “not detected”; (concentrated soybean protein, substrate concentration 2%, heat treatment of enzyme yes, reaction time 6 h) 52.6%; (concentrated soybean protein, substrate concentration 5%, heat treatment of enzyme no, reaction time 0 h) 53.0%. The “Decomposition efficiency: ratio of each glycoside/aglycon within its isoflavone family” value (concentrated soybean protein, substrate concentration 5%, heat treatment of enzyme no, reaction time 1 h) is listed as “not detected”; the “Decomposition efficiency: ratio of each glycoside/aglycon within its isoflavone family” value (concentrated soybean protein, substrate concentration 5%, heat treatment of enzyme no, reaction time 3 h) is listed as “not detected”; the “Decomposition efficiency: ratio of each glycoside/aglycon within its isoflavone family” value (concentrated soybean protein, substrate concentration 5%, heat treatment of enzyme no, reaction time 6 h) is “not detected”; the “Decomposition efficiency: ratio of each glycoside/aglycon within its isoflavone family” value (concentrated soybean protein, substrate concentration 5%, heat treatment of enzyme yes, reaction time 6 h) is recorded as 53.5%; the “Decomposition efficiency: ratio of each glycoside/aglycon within its isoflavone family” value (concentrated soybean protein, substrate concentration 10%, heat treatment of enzyme no, reaction time 0 h) was 52.8%; the “Decomposition efficiency: ratio of each glycoside/aglycon within its isoflavone family” value (concentrated soybean protein, substrate concentration 10%, heat treatment of enzyme no, reaction time 1 h) is 2.2%. Further, the “Decomposition efficiency: ratio of each glycoside/aglycon within its isoflavone family” value (concentrated soybean protein, substrate concentration 10%, heat treatment of enzyme no, reaction time 3 h) is given as “not detected”; the “Decomposition efficiency: ratio of each glycoside/aglycon within its isoflavone family” value (concentrated soybean protein, substrate concentration 10%, heat treatment of enzyme no, reaction time 6 h) was “not detected”; the “Decomposition efficiency: ratio of each glycoside/aglycon within its isoflavone family” value (concentrated soybean protein, substrate concentration 10%, heat treatment of enzyme yes, reaction time 6 h) is given as 53.3%; the “Decomposition efficiency: ratio of each glycoside/aglycon within its isoflavone family” value (concentrated soybean protein, substrate concentration 20%, heat treatment of enzyme no, reaction time 0 h) is listed as 52.9%; the “Decomposition efficiency: ratio of each glycoside/aglycon within its isoflavone family” value (concentrated soybean protein, substrate concentration 20%, heat treatment of enzyme no, reaction time 1 h) is reported as 0.7%; the “Decomposition efficiency: ratio of each glycoside/aglycon within its isoflavone family” value (concentrated soybean protein, substrate concentration 20%, heat treatment of enzyme no, reaction time 3 h) was “not detected”. Also, the “Decomposition efficiency: ratio of each glycoside/aglycon within its isoflavone family” value by setting is: (concentrated soybean protein, substrate concentration 20%, heat treatment of enzyme no, reaction time 6 h) “not detected”; (concentrated soybean protein, substrate concentration 20%, heat treatment of enzyme yes, reaction time 6 h) 52.8%; (concentrated soybean protein, substrate concentration 30%, heat treatment of enzyme no, reaction time 0 h) 49.2%; (concentrated soybean protein, substrate concentration 30%, heat treatment of enzyme no, reaction time 1 h) 2.7%; (concentrated soybean protein, substrate concentration 30%, heat treatment of enzyme no, reaction time 3 h) “not detected”; (concentrated soybean protein, substrate concentration 30%, heat treatment of enzyme no, reaction time 6 h) “not detected”. The “Decomposition efficiency: ratio of each glycoside/aglycon within its isoflavone family” value (concentrated soybean protein, substrate concentration 30%, heat treatment of enzyme yes, reaction time 6 h) came to 49.8%.

On to `O=c1c(-c2ccc(O)cc2)coc2cc(O[C@@H]3O[C@H](CO)[C@@H](O)[C@H](O)[C@H]3O)cc(O)c12` [genisitin], for which the “Decomposition efficiency of genistin family in defatted soybean” value by setting is: (substrate concentration 2%, heat treatment of enzyme no, reaction time 0 h) 37.7; (substrate concentration 2%, heat treatment of enzyme no, reaction time 1 h) “not detected”; (substrate concentration 2%, heat treatment of enzyme no, reaction time 3 h) “not detected”; (substrate concentration 2%, heat treatment of enzyme no, reaction time 6 h) “not detected”; (substrate concentration 2%, heat treatment of enzyme yes, reaction time 6 h) 38.7; (substrate concentration 5%, heat treatment of enzyme no, reaction time 0 h) 40.0. In addition, the “Decomposition efficiency of genistin family in defatted soybean” value runs as follows: (substrate concentration 5%, heat treatment of enzyme no, reaction time 1 h) “not detected”; (substrate concentration 5%, heat treatment of enzyme no, reaction time 3 h) “not detected”; (substrate concentration 5%, heat treatment of enzyme no, reaction time 6 h) “not detected”; (substrate concentration 5%, heat treatment of enzyme yes, reaction time 6 h) 41.8; (substrate concentration 10%, heat treatment of enzyme no, reaction time 0 h) 42.4; (substrate concentration 10%, heat treatment of enzyme no, reaction time 1 h) “not detected”. Besides, the “Decomposition efficiency of genistin family in defatted soybean” value is listed as “not detected” (substrate concentration 10%, heat treatment of enzyme no, reaction time 3 h); “not detected” (substrate concentration 10%, heat treatment of enzyme no, reaction time 6 h); 44.3 (substrate concentration 10%, heat treatment of enzyme yes, reaction time 6 h).

These data come from patent US7118895B2, “Process for producing aglycon by using diglycosidase and flavor-improved food containing the aglycon and converting agent to be used in the process” (Amano Enzyme Inc., priority 2000, dated 2006).
